Measurements taken from ChEMBL document CHEMBL1201862, “PubChem BioAssay data set” (2004).
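Five compound concentrations were applied to cells in 96-well plates for 48 hours; endpoints were derived by simple linear interpolation of the resulting dose-response curve. GI50 marks 50% less growth.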 Calls of active or inactive are those of the source. Cut-off read from the data, not from the text of the source: active = GI50 up to about 1.1 µM and inactive = higher.

How the values were obtained:
Experiment in all cases: NCI tumour cell line growth inhibition, 48 h
[1] = tested on: 786-0
[2] = tested on: CAKI-1
[3] = tested on: CCRF-CEM
[4] = tested on: HL-60
[5] = tested on: M14
[6] = tested on: MCF7
[7] = tested on: MDA-MB-231
[8] = tested on: NCI/ADR-RES
[9] = tested on: RPMI-8226
[10] = tested on: RXF 393
[11] = tested on: SF-295
[12] = tested on: SK-MEL-2
[13] = tested on: SK-MEL-5
[14] = tested on: SNB-19
[15] = tested on: SNB-75
[16] = tested on: SR
[17] = tested on: SW-620
[18] = tested on: TK-10
[19] = tested on: U-251
[20] = tested on: UO-31

Measured: GI50

CC(C)(C)NC(=O)/C(=C\Sc1ccccc1)c1ccccc1
inactive: [1] > 100 µM | [2] > 100 µM | [3] 40.6 µM | [4] > 100 µM | [5] > 100 µM | [6] > 73.8 µM | [7] > 95.5 µM | [8] > 29 µM | [9] 19.6 µM | [10] > 100 µM | [11] > 100 µM | [12] > 100 µM | [13] 52.5 µM | [14] > 100 µM | [15] > 100 µM | [16] 46.6 µM | [17] > 100 µM | [18] > 100 µM | [19] > 100 µM | [20] > 100 µM

CCOC(=O)C(NC(=O)CC)(N1CCN(c2cc3c(cc2F)c(=O)c(C(=O)O)cn3C2CC2)CC1)C(F)(F)F (centres undefined)
inactive: [1] > 100 µM | [2] > 100 µM | [3] 91.8 µM | [4] > 100 µM | [5] > 100 µM | [6] > 100 µM | [7] 52.2 µM | [8] > 100 µM | [9] > 100 µM | [10] > 100 µM | [11] > 100 µM | [12] > 100 µM | [13] > 100 µM | [14] > 100 µM | [15] > 100 µM | [16] > 100 µM | [17] > 100 µM | [18] > 100 µM | [19] 92.9 µM | [20] > 100 µM

CN(C)CCCc1cccc2[nH]c3c(c12)CN(C)CC3
inactive: [1] 92.3 µM | [2] > 100 µM | [3] 63.2 µM | [4] 56.9 µM | [5] 17.3 µM | [6] > 100 µM | [7] 17.8 µM | [8] > 100 µM | [9] > 100 µM | [10] 19.7 µM | [11] > 100 µM | [12] > 100 µM | [13] > 100 µM | [14] > 100 µM | [15] 78 µM | [16] 27.4 µM | [17] > 100 µM | [18] > 100 µM | [19] > 100 µM | [20] > 100 µM

CCOc1cc(NC(C)=O)ccc1C(=O)NN1C(=O)CSC1c1ccc(O)c(OC)c1 (centres undefined)
inactive: [1] > 100 µM | [2] 44.4 µM | [3] 40.8 µM | [4] 41.5 µM | [5] 50.4 µM | [6] 44.7 µM | [7] 53.8 µM | [8] 30.8 µM | [9] 40.4 µM | [10] 34.7 µM | [11] 50.8 µM | [12] 49 µM | [13] 52.1 µM | [14] 89.1 µM | [15] 85.3 µM | [16] 50.9 µM | [17] 87.7 µM | [18] 6.67 µM | [20] 10.8 µM
